Measurements as given in patent US20150105252A1, “SUBSTITUTED PYRAZOLES AS HERBICIDES” (E I DU PONT DE NEMOURS AND COMPANY, priority 2013, published 2015).

Tests used:
wheat, spring = test: Test D postemergence; assay type: in vivo, Triticum aestivum; settings: scale 0 to 100
Summary of the method: (§1)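 Seeds are planted in silt loam and treated preemergence, while parallel plantings in a peat moss/vermiculite medium with starter nutrients receive postemergence sprays at the 1- to 4-leaf stage. All formulations use a non-phytotoxic solvent mixture with surfactant. Plants are kept in a controlled growth environment and rated visually after 14–21 days.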

wheat, winter = test: Test D postemergence; assay type: in vivo, Triticum aestivum; settings: scale 0 to 100
Summary of the method: as §1

foxtail, green = test: Test D postemergence; assay type: in vivo, Setaria viridis; settings: scale 0 to 100
Summary of the method: as §1

lambsquarters = test: Test D preemergence; assay type: in vivo, Chenopodium album; settings: scale 0 to 100
Summary of the method: as §1

oilseed rape [1] = test: Test D postemergence; assay type: in vivo, Brassica napus; settings: scale 0 to 100
Summary of the method: as §1

galium = test: Test D postemergence; assay type: in vivo, Galium aparine; settings: scale 0 to 100
Summary of the method: as §1

mustard, wild = test: Test D postemergence; assay type: in vivo, Sinapis arvensis; settings: scale 0 to 100
Summary of the method: as §1

wild poinsettia = test: Test F preemergence; assay type: in vivo, Euphorbia heterophylla
Summary of the method: (§2)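 Planting in silt loam, then preemergence treatment; postemergence treatment in parallel on 1- to 4-leaf seedlings (2–18 cm). Compound carried in a non-phytotoxic solvent mixture with surfactant. Greenhouse, 14–21 days; visual comparison with controls, scored 0 (none) to 100 (full control).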

common waterhemp = test: Test F preemergence; assay type: in vivo, Amaranthus rudis
Summary of the method: as §2

pigweed, palmer = test: Test F preemergence; assay type: in vivo, Amaranthus palmeri
Summary of the method: as §2

fall panicum = test: Test F preemergence; assay type: in vivo, Panicum dichotomiflorum
Summary of the method: as §2

oilseed rape [2] = test: Test D preemergence; assay type: in vivo, Brassica napus; settings: scale 0 to 100
Summary of the method: as §1

kochia = test: Test D postemergence; assay type: in vivo, Kochia scoparia; settings: scale 0 to 100
Summary of the method: as §1

green foxtail = test: Test F preemergence; assay type: in vivo, Setaria viridis
Summary of the method: as §2

[3] = Preemergence, 31 g ai/ha, scale 0 to 100
[4] = Preemergence, 62 g ai/ha, scale 0 to 100
[5] = Preemergence, 125 g ai/ha, scale 0 to 100
[6] = preemergence, 8 g ai/ha, scale 0 to 100, 100 is complete control
[7] = preemergence, 16 g ai/ha, scale 0 to 100, 100 is complete control
[8] = Preemergence, 16 g ai/ha, scale 0 to 100

For CCCc1cc(C(=O)NCC(F)(F)F)nn1Cc1ccnc(C(F)(F)F)c1 [Compound 105], the “Wheat, Spring plant response rating” value (wheat, spring; Postemergence, 31 g ai/ha) was 5, the “Wheat, Spring plant response rating” value (wheat, spring; Postemergence, 125 g ai/ha) was 20 and the “Wheat, Spring plant response rating” value (wheat, spring; Postemergence, 250 g ai/ha) was 40. For the same molecule, the “Wheat, Spring plant response rating” value (wheat, spring; postemergence, 62 g ai/ha) was 10, the “Wheat, Winter plant response rating” value (wheat, winter; Postemergence, 31 g ai/ha) was 10 and the “Wheat, Winter plant response rating” value (wheat, winter; Postemergence, 125 g ai/ha) was 40. The “Wheat, Winter plant response rating” value (wheat, winter; Postemergence, 250 g ai/ha) was 70, the “Wheat, Winter plant response rating” value (wheat, winter; postemergence, 62 g ai/ha) was 15 and the “Foxtail, Green plant response rating” value (foxtail, green; Postemergence, 31 g ai/ha) was 10. For the same molecule, the “Foxtail, Green plant response rating” value (foxtail, green; Postemergence, 125 g ai/ha) was 70, the “Foxtail, Green plant response rating” value (foxtail, green; Postemergence, 250 g ai/ha) was 80 and the “Foxtail, Green plant response rating” value (foxtail, green; postemergence, 62 g ai/ha) was 65. For the same molecule, the “Plant response rating, Lambsquarters” value (lambsquarters; 31 g ai/ha) was 100, the “Plant response rating, Lambsquarters” value (lambsquarters; 62 g ai/ha) was 100 and the “Plant response rating, Lambsquarters” value (lambsquarters; 125 g ai/ha) was 100. For the same molecule, the “Plant response rating, Lambsquarters” value (lambsquarters; 250 g ai/ha) was 100, the “Oilseed Rape plant response rating” value (oilseed rape [1]; Postemergence, 31 g ai/ha) was 40 and the “Oilseed Rape plant response rating” value (oilseed rape [1]; Postemergence, 125 g ai/ha) was 70. The “Oilseed Rape plant response rating” value (oilseed rape [1]; Postemergence, 250 g ai/ha) was 85, the “Oilseed Rape plant response rating” value (oilseed rape [1]; postemergence, 62 g ai/ha) was 60 and the “Galium plant response rating” value (galium; Postemergence, 31 g ai/ha) was 70. The “Galium plant response rating” value (galium; Postemergence, 125 g ai/ha) was 80, the “Galium plant response rating” value (galium; Postemergence, 250 g ai/ha) was 85 and the “Galium plant response rating” value (galium; postemergence, 62 g ai/ha) was 75. For the same molecule, the “Mustard, Wild plant response rating” value (mustard, wild; Postemergence, 31 g ai/ha) was 70, the “Mustard, Wild plant response rating” value (mustard, wild; Postemergence, 125 g ai/ha) was 85 and the “Mustard, Wild plant response rating” value (mustard, wild; Postemergence, 250 g ai/ha) was 90. For the same molecule, the “Mustard, Wild plant response rating” value (mustard, wild; postemergence, 62 g ai/ha) was 60, the “Plant response rating, Wild Poinsettia” value (wild poinsettia; [3]) was 5 and the “Plant response rating, Wild Poinsettia” value (wild poinsettia; [4]) was 60. For the same molecule, the “Plant response rating, Wild Poinsettia” value (wild poinsettia; [5]) was 95, the “Plant response rating, Wild Poinsettia” value (wild poinsettia; [6]) was 0 and the “Plant response rating, Wild Poinsettia” value (wild poinsettia; [7]) was 0. For the same molecule, the “Plant response rating, Common Waterhemp” value (common waterhemp; [3]) was 100, the “Plant response rating, Common Waterhemp” value (common waterhemp; [4]) was 100 and the “Plant response rating, Common Waterhemp” value (common waterhemp; [5]) was 100. The “Plant response rating, Common Waterhemp” value (common waterhemp; [6]) was 75, the “Plant response rating, Common Waterhemp” value (common waterhemp; [7]) was 100 and the “Plant response rating, Pigweed, Palmer” value (pigweed, palmer; [4]) was 50. For the same molecule, the “Plant response rating, Pigweed, Palmer” value (pigweed, palmer; [5]) was 80, the “Plant response rating, Pigweed, Palmer” value (pigweed, palmer; [6]) was 0 and the “Plant response rating, Pigweed, Palmer” value (pigweed, palmer; [7]) was 0. The “Plant response rating, Fall Panicum” value (fall panicum; [3]) was 100, the “Plant response rating, Fall Panicum” value (fall panicum; [4]) was 100 and the “Plant response rating, Fall Panicum” value (fall panicum; [5]) was 100. The “Plant response rating, Fall Panicum” value (fall panicum; [6]) was 75, the “Plant response rating, Fall Panicum” value (fall panicum; [7]) was 80 and the “Plant response rating, Oilseed Rape” value (oilseed rape [2]; 31 g ai/ha) was 0. The “Plant response rating, Oilseed Rape” value (oilseed rape [2]; 62 g ai/ha) was 10, the “Plant response rating, Oilseed Rape” value (oilseed rape [2]; 125 g ai/ha) was 70 and the “Plant response rating, Oilseed Rape” value (oilseed rape [2]; 250 g ai/ha) was 95. The “Kochia plant response rating” value (kochia; Postemergence, 31 g ai/ha) was 75, the “Kochia plant response rating” value (kochia; Postemergence, 125 g ai/ha) was 80 and the “Kochia plant response rating” value (kochia; Postemergence, 250 g ai/ha) was 80. For the same molecule, the “Kochia plant response rating” value (kochia; postemergence, 62 g ai/ha) was 75, the “Plant response rating, Green Foxtail” value (green foxtail; [3]) was 75 and the “Plant response rating, Green Foxtail” value (green foxtail; [4]) was 100. For the same molecule, the “Plant response rating, Green Foxtail” value (green foxtail; [5]) was 100, the “Plant response rating, Green Foxtail” value (green foxtail; [6]) was 0 and the “Plant response rating, Green Foxtail” value (green foxtail; [7]) was 25.
With CCOc1cc(C(=O)NC(C)C)nn1Cc1ccnc(C(F)(F)F)c1 [Compound 188] the “Wheat, Spring plant response rating” value (wheat, spring; Postemergence, 31 g ai/ha) was 10, the “Wheat, Spring plant response rating” value (wheat, spring; Postemergence, 125 g ai/ha) was 15 and the “Wheat, Spring plant response rating” value (wheat, spring; Postemergence, 250 g ai/ha) was 40. The “Wheat, Spring plant response rating” value (wheat, spring; postemergence, 62 g ai/ha) was 10, the “Wheat, Winter plant response rating” value (wheat, winter; Postemergence, 31 g ai/ha) was 25 and the “Wheat, Winter plant response rating” value (wheat, winter; Postemergence, 125 g ai/ha) was 30. The “Wheat, Winter plant response rating” value (wheat, winter; Postemergence, 250 g ai/ha) was 65, the “Wheat, Winter plant response rating” value (wheat, winter; postemergence, 62 g ai/ha) was 25 and the “Foxtail, Green plant response rating” value (foxtail, green; Postemergence, 31 g ai/ha) was 25. For the same molecule, the “Foxtail, Green plant response rating” value (foxtail, green; Postemergence, 125 g ai/ha) was 25, the “Foxtail, Green plant response rating” value (foxtail, green; Postemergence, 250 g ai/ha) was 55 and the “Foxtail, Green plant response rating” value (foxtail, green; postemergence, 62 g ai/ha) was 25. The “Plant response rating, Lambsquarters” value (lambsquarters; 62 g ai/ha) was 100, the “Plant response rating, Lambsquarters” value (lambsquarters; 125 g ai/ha) was 100 and the “Plant response rating, Lambsquarters” value (lambsquarters; 250 g ai/ha) was 100. For the same molecule, the “Oilseed Rape plant response rating” value (oilseed rape [1]; Postemergence, 31 g ai/ha) was 55, the “Oilseed Rape plant response rating” value (oilseed rape [1]; Postemergence, 125 g ai/ha) was 55 and the “Oilseed Rape plant response rating” value (oilseed rape [1]; Postemergence, 250 g ai/ha) was 70. For the same molecule, the “Oilseed Rape plant response rating” value (oilseed rape [1]; postemergence, 62 g ai/ha) was 55, the “Galium plant response rating” value (galium; Postemergence, 31 g ai/ha) was 75 and the “Galium plant response rating” value (galium; Postemergence, 125 g ai/ha) was 85. For the same molecule, the “Galium plant response rating” value (galium; Postemergence, 250 g ai/ha) was 90, the “Galium plant response rating” value (galium; postemergence, 62 g ai/ha) was 75 and the “Mustard, Wild plant response rating” value (mustard, wild; Postemergence, 31 g ai/ha) was 50. For the same molecule, the “Mustard, Wild plant response rating” value (mustard, wild; Postemergence, 125 g ai/ha) was 60, the “Mustard, Wild plant response rating” value (mustard, wild; Postemergence, 250 g ai/ha) was 85 and the “Mustard, Wild plant response rating” value (mustard, wild; postemergence, 62 g ai/ha) was 50. For the same molecule, the “Plant response rating, Wild Poinsettia” value (wild poinsettia; [4]) was 100, the “Plant response rating, Wild Poinsettia” value (wild poinsettia; [5]) was 100 and the “Plant response rating, Wild Poinsettia” value (wild poinsettia; [6]) was 10. For the same molecule, the “Plant response rating, Common Waterhemp” value (common waterhemp; [8]) was 100, the “Plant response rating, Common Waterhemp” value (common waterhemp; [4]) was 100 and the “Plant response rating, Common Waterhemp” value (common waterhemp; [5]) was 100. For the same molecule, the “Plant response rating, Common Waterhemp” value (common waterhemp; [6]) was 85, the “Plant response rating, Pigweed, Palmer” value (pigweed, palmer; [5]) was 50 and the “Plant response rating, Pigweed, Palmer” value (pigweed, palmer; [6]) was 0. The “Plant response rating, Fall Panicum” value (fall panicum; [8]) was 100, the “Plant response rating, Fall Panicum” value (fall panicum; [4]) was 100 and the “Plant response rating, Fall Panicum” value (fall panicum; [5]) was 100. The “Plant response rating, Fall Panicum” value (fall panicum; [6]) was 75, the “Plant response rating, Oilseed Rape” value (oilseed rape [2]; 62 g ai/ha) was 85 and the “Plant response rating, Oilseed Rape” value (oilseed rape [2]; 125 g ai/ha) was 100. The “Plant response rating, Oilseed Rape” value (oilseed rape [2]; 250 g ai/ha) was 100, the “Kochia plant response rating” value (kochia; Postemergence, 31 g ai/ha) was 75 and the “Kochia plant response rating” value (kochia; Postemergence, 125 g ai/ha) was 80. The “Kochia plant response rating” value (kochia; Postemergence, 250 g ai/ha) was 85, the “Kochia plant response rating” value (kochia; postemergence, 62 g ai/ha) was 75 and the “Plant response rating, Green Foxtail” value (green foxtail; [4]) was 100. For the same molecule, the “Plant response rating, Green Foxtail” value (green foxtail; [5]) was 100 and the “Plant response rating, Green Foxtail” value (green foxtail; [6]) was 5.
